Laboratory results taken from publication PMC6895912 (Cancers, 2019).
Where two headings read alike, the source gives them in different places.

Tests used:
LNCaP cells = assay: Cell cycle analysis (G1 arrest); assay type: cell-based, human; settings: 2.5 µM as effective as Gal at 20 µM
Excerpt: (§1) The new NGGAs (VNPP414 and VNPP433-3β) were identified from in vitro anti-proliferative activities of our in-house compounds assessed in several PC cell lines, including LNCaP, C4-2B, and CWR22Rv1 (22Rv1). […] It was recently reported that treatment of AR-expressing bladder cancer cell lines with enzalutamide induced up-regulation of tumor suppressor, p53, p21 and PTEN, and down-regulation of several oncogenic genes, such as c-myc, cyclin D1, and cyclin E [38]. […] We note that these cell-cycle studies were conducted in LNCaP cells. Inhibition of colony formations (clonogenicity assays) was also assessed by treating the parental CWR-R1 cells and two drug-resistant counterparts with Gal, VNPP433-3β, or ENZ.
(A) Comparative GI50 values of Gal, NGGAs, and enzalutamide (ENZ) in drug-naïve-/-resistant prostate cancer cells. (B) Gal and NGGAs induce G1 cell cycle arrest in LNCaP cells. (C) VNPP414 and VNPP433-3β deplete the cell cycle regulator, cyclin D1, and upregulate p21; “+” indicates specific treatments. (D) Gal cause dose-dependent depletion of cyclin D1. (E) Unlike ENZ, Gal and VNPP433-3β inhibit colony formation of drug-naïve/-resistant cells in vitro. […] (F) Quantification of colony formation units (CFU) in drug-naive/resistant cells. Colony assays were repeated three times and colonies counted in four quadrants of the wells. […]

AR-V7 = molecular target: T1, AR-V7 (Homo sapiens, UniProt P10275); assay: Protein level decrease by western blot, dose-response in CWR22Rv1 cells; assay type: cell-based; settings: for times more effective (than Gal) in degrading AR-V7: from EC50 values
T1 construct: compound treatments (0–7.5 µM) of CWR22Rv1 cells for 72 h followed by western blot analysis of cells lysates; endogenous in cells; host or cells: CWR22Rv1
T1 sequence (P10275 1-644 isoform P10275-3): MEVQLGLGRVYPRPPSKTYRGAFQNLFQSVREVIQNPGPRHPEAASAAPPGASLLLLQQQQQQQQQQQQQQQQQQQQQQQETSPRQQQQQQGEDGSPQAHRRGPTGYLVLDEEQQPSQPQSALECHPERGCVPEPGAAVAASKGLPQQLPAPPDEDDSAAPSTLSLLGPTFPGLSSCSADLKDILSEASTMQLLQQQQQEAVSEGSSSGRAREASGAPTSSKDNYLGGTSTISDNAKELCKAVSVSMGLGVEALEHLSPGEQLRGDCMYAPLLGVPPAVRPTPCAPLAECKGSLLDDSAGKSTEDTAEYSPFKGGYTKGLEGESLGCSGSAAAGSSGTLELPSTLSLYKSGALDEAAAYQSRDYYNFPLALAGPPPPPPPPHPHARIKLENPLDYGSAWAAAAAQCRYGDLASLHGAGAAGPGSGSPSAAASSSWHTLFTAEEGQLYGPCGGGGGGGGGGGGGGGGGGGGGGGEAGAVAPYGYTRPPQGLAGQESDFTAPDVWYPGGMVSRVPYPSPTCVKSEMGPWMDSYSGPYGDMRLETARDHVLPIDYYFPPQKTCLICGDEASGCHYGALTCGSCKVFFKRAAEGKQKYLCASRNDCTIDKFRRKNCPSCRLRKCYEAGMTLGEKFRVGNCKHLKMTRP
Excerpt: (§2) Figure 4 Impact of Gal and NGGAs on AR/AR-V7 and Mnk1/2-eIF4E signaling pathways. (A) Western blot showing the effects of Gal and VNPT55 (55) on Mnk1, Mnk2, and peIF4E. […] (D) Western blot showing dose-dependent effect of Gal on Mnk1, Mnk2, BMI-1, and Snail1 in drug-resistant CWR-R1(10E) cells. […] Note: the numbers in parentheses in Figure 4B are concentrations of the agents in µM.
(§3) We further determined the effects of lead NGGAs on f-AR, AR-V7 and Mnk1 protein levels in CWR22Rv1 cells.
(§4) Cells were lysed with radioimmunoprecipitation assay (RIPA) buffer (Sigma, St. Louis, MO, USA), supplemented with 1X protease inhibitors (Roche, Indianapolis, IN, USA), phosphatase inhibitors (Thermo Scientific, Waltham, MA, USA), 1 mmol/L EDTA and 1 mmol/L PMSF (Sigma).

fAR = fAR (Homo sapiens, UniProt P10275); assay: as above; assay type: cell-based
Excerpt: as §2, §3, §4

PC-3 cells = assay: Wound-healing cell migration assay; assay type: cell-based, human; settings: PC-3, wound healing, 12 h
[1] = tested on: drug-naïve and drug-resistant prostate cancer cell lines (six different cell lines); assay: MTT cell viability (antiproliferative) assay, GI50; assay type: cell-based; settings: Homo sapiens, 168 h, read-out: GI50 (concentration required to inhibit cell growth by 50%), range over the six cell lines tested, 7 days
Excerpt: as §1
(A) Comparative GI50 values of Gal, NGGAs, and enzalutamide (ENZ) in drug-naïve-/-resistant prostate cancer cells. (B) Gal and NGGAs induce G1 cell cycle arrest in LNCaP cells. (C) VNPP414 and VNPP433-3β deplete the cell cycle regulator, cyclin D1, and upregulate p21; “+” indicates specific treatments. (D) Gal cause dose-dependent depletion of cyclin D1. […] (F) Quantification of colony formation units (CFU) in drug-naive/resistant cells. Colony assays were repeated three times and colonies counted in four quadrants of the wells. […]
MTT assays were performed as described in our previous publications. […] Data was analyzed with GraphPad prism 4 software.

fAR, sequence (P10275 whole entry): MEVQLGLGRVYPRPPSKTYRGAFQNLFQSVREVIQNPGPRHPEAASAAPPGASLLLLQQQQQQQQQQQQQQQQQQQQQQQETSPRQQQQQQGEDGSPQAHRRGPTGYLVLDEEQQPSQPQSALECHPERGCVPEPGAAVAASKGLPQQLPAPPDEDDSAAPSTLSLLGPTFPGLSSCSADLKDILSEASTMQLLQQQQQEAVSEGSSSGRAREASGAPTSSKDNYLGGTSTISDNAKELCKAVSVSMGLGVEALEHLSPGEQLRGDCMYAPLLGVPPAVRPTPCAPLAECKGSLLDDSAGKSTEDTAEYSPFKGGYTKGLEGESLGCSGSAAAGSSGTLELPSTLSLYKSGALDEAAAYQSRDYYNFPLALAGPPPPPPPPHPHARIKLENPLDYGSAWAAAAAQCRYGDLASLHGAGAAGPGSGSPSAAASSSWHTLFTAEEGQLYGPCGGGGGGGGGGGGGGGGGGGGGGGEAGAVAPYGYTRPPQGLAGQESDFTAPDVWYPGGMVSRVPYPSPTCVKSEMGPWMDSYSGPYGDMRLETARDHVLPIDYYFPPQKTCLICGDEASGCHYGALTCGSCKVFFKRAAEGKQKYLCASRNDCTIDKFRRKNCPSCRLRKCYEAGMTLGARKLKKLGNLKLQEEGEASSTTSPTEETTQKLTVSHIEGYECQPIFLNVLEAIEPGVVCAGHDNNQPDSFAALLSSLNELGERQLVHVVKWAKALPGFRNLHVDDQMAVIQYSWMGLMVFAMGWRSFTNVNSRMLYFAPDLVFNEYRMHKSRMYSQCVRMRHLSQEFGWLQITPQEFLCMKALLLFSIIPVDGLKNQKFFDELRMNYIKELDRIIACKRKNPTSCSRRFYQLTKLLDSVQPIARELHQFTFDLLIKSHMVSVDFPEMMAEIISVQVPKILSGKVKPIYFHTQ

Row | Structure (SMILES) | improved potency over Gal in G1 cell cycle arrest (LNCaP cells) | DC50 (AR-V7; 0–7.5 µM, 72 h, western blot, read-out: AR-V7 EC50) | times more effective (than Gal) in degrading AR-V7 (AR-V7) | EC50 (fAR; read-out: fAR EC50, 0–7.5 µM, 72 h) | inhibition of cell migration (PC-3 cells) | GI50 [1] | DC50 (AR-V7; read-out: AR-V7 EC50, 0–7.5 µM, 72 h, western blot) | EC50 (fAR; 0–7.5 µM, 72 h, read-out: fAR EC50)
1 | C[C@]12CC[C@H](OCc3ccncc3)CC1=CCC1C2CC[C@]2(C)C(n3cnc4ccccc43)=CCC12 (some centres unmarked) [VNPP414] | ≥ 8 fold | 1260 ± 50 nM | 3.9 times | 840 ± 2 nM | significant inhibition of PC-3 cells migration | – | – | –
2 | C[C@]12CC[C@H](n3ccnc3)CC1=CCC1C2CC[C@]2(C)C(n3cnc4ccccc43)=CCC12 (stereo partly drawn) [VNPP433-3β] | ≥ 8 fold | – | 3.7 times | – | significant inhibition of PC-3 cells migration | 1120 to 2540 nM | 1340 ± 330 nM | 580 ± 2 nM
